Source: patent publication US8329643B2, “PIMAP39 modulates LPS-induced inflammatory response” (Trustees of Boston University, priority 2008, dated 2012)

Experiments:
PTP4A3 gene expression = assay: PTP4A3 expression by RT-PCR in LPS plus inhibitor treated THP-1 cells; type: cell-based, human; conditions: time course
Description: (§1) THP-1 cells were differentiated with 100 nM phorbol-12-myristate-13-acetate (PMA) and seeded (1×10^5) in 6-well plates overnight. After washing by PBS, cells were stimulated with 0.1 mg/ml E. coli LPS for 3 hrs. The cells were washed with PBS again and treated with various inhibitors. 10 μM Sodium orthovandate, 20μM AG490, 20μM U0126, 20μM SB203580 or untreated as control. 200μl of supernatant was collected for ELISA assay (A) from each treatment at 2, 4, 6, 8, 12, 14 and 16 hours and its corresponding mRNA was prepared for RT-PCR (B) by first extracting total RNA from the treated cells using QIAQuick™ RNA miniprep (Qiagen). 1μg of each RNA was used to generate cDNA with Platinum® Quantitative RT-PCR ThermoScript™ One-Step System kit (Invitrogen). 10 ng pf cDNA from each test was PCRed using PTP4A3 forward primer 5′-ATGGCTCGGATGAACCGC-3′ [SEQ ID NO: 2] and reverse primer 5′-CTACATAACGCAGCACCG-3′ [SEQ ID NO: 3]. Another 1 ng of cDNA was PCRed using GAPDH primer pairs (Invitrogen) as control. Densitometric analysis (C) of RT-PCR (B) with intensity values normalized to GAPDH and using 0 hour value as reference intensity.
The PCR or RT-PCR was performed following manufacturer's instructions.

[1] = tested on: LPS-induced TNF-α production; assay: Effects of inhibitors on LPS-induced TNF-α production in THP-1 cells (ELISA); type: cell-based, human; conditions: for LPS-induced TNF-α expression compared to LPS alone / TNF-α levels within 8-10 hrs post treatment: THP-1 cells; for LPS-induced TNF-α expression compared to LPS alone: 0.1 μg/ml E. coli LPS, 10 μM sodium orthovanadate, 20 μM AG490, U0126 or SB203580, ELISA 2-16 hours; for TNF-α levels within 8-10 hrs post treatment: LPS + inhibitor, ELISA
Description: as §1, with “5′-[…]-3′” for “5′-ATGGCTCGGATGAACCGC-3′”, “5′-[…]-3′” for “5′-CTACATAACGCAGCACCG-3′”
AG490, U0126 and SB203580 were purchased from EMD Biosciences (San Diego, Calif.). Sodium orthovanadate was purchased from Sigma-Aldrich (Saint Louis, Mo.). Human THP-1 cells were treated with 10 μM Sodium orthovanadate (PTP4A3 inhibitor [Greenwel, P, et al., (1995) Tyrosine dephosphorylation of nuclear proteins mimics transforming growth factor beta 1 stimulation of alpha 2(1) collagen gene expression. Mol Cell Biol 15:6813-6819], 20 μM AG490 (JAK inhibitor [Saudemont, A, et al., (2007) Dormant tumor cells develop cross-resistance to apoptosis induced by CTLs or imatinib mesylate via methylation of suppressor of cytokine signaling 1. Cancer Res 67:4491-4498], 20 μM U0126 (ERK inhibitor [Yang, L, et al., (2007) Inhibition of epidermal growth factor receptor signaling elevates 15-hydroxyprostaglandin dehydrogenase in non-small-cell lung cancer. Cancer Res 67:5587-5593], 20 μM SB203580 (p38 MAPK inhibitor [Hsieh, Y H, et al., (2007) p38 mitogen-activated protein kinase pathway is involved in protein kinase Calpha-regulated invasion in human hepatocellular carcinoma cells. Cancer Res 67:4320-4327].
For primary mouse macrophages or THP-1, cells were seeded (2×10^4 cells in 96-well plate or 2×10^6 cells in six-well plate) and were stimulated with […] of E. coli LPS (Sigma) and/or transiently transfected with […] of DNA using Lipofectamine™ Reagent and/or introduced with 500 ng/ml peptide using Chariot™ kit (ActiveMotif; Carlsbad, Calif.) prior to LPS treatment, then incubated at 37° C., 5% CO2 overnight. Culture supernatants were harvested and centrifuged at 1,500×g to remove cell debris. Concentrations of mouse or human TNF-α in the supernatant of each well of treated and untreated control cells were measured by ELISA (Abraxis, Warminster, Pa.). ELISA immunoreactivity was quantified by using a microplate reader (Bio-Rad, Hercules, Calif.) and graphed.
To investigate a link between PTP4A3 and the LPS signaling cascade, HP-1 cells were co-treated with 0.1 μg/ml E. coli LPS and/or various inhibitors, sodium orthovanadate (PTP4A3 inhibitor), AG490 (JAK inhibitor), U0126 (ERK inhibitor), SB203580 (p38 MAPK inhibitor) or untreated as control. The supernatants from cell culture at each time point (2, 4, 6, 8, 10, 12, 14 and 16 hours post stimulation) were collected and the potential role of these inhibitors on TNF-α production was measured by ELISA (Abraxis; […].). In parallel mRNA from each experimental group was prepared and quantified by RT-PCR.

[2] = tested on: p38α/LITAF signaling pathway; assay: Western blot of p38α/LITAF signaling pathway in LPS-treated THP-1 cells after PTP4A3 overexpression or RNAi; type: cell-based, human
Description: THP-1 cells (1×10^5) were stimulated with 0.1 μg/ml E. coli LPS for 3 hours. The cells were washed and transiently transfected with DNAs above using Lipofectamine™ reagent (Invetrogen). Treated cells were then incubated overnight. The supernatants from each culture were measured by ELISA. Elisa immunoreactivity was quantified using a microplate reader (Bio-Rad) and graphed (A). […] THP-1 cells (B) or mouse macrophage cells (C) were stimulated with 0.1 μg/ml E. coli LPS alone for 3 hours and then transfected with 1 μg/ml pcHAPTP DNA (B & C, lane 3) or 1 μg/ml pcDNA (B & C, lane 2) and untreated (B & C, lane 1) as controls by Lipofectamine reagent. Treated cells were incubated overnight and lysed. […]
THP-1 cells (5×10^6) matured by treatment with 200 nM phorbol 12-myristate 13-acetate (Sigma) were treated or untreated with 0.1 μg/ml LPS (Sigma) for 3 h and washed with PBS. […] The protein lysate from the treated or untreated cells were analyzed by Western blotting. […]
LITAF remains inactivated in the absence of p38 MAP kinase (p38α) and the inhibition of p38α down-regulates cytokines such as TNF-α [Tang, X, et al., (2006) LPS-induced TNF-alpha factor (LITAF)-deficient mice express reduced LPS-induced cytokine: Evidence for LITAF-dependent LPS signaling pathways. […] The lysate protein from each treated cell culture was detected by Western blot analysis. […]

[3] = tested on: LPS-induced TNF-α expression; conditions: monocyte cells, 'current studies'; cited from earlier work

Row | Molecule | PTP4A3 expression (RT-PCR) (PTP4A3 gene expression) | LPS-induced TNF-α expression compared to LPS alone [1] | LPS-induced TNF-α expression at protein and mRNA levels [3] | further results
1 | C[S+]([O-])c1ccc(-c2nc(-c3ccncc3)c(-c3ccc(F)cc3)[nH]2)cc1 (centres unmarked) [SB203580] | at a maximum between 8-10 hrs | significant decrease | – | –
2 | N#C/C(=C/c1ccc(O)c(O)c1)C(=O)NCc1ccccc1 [AG490] | at a maximum between 8-10 hrs | did not result in a significant decrease | – | TNF-α levels within 8-10 hrs post treatment [1]: did not increase at all
3 | GUACGAGGACGCCAUCCAGUU & AACUGGAUGGCGUCCUCGUAC (listed as RNA, chemistry not given here) [RNAi, small interfering RNA (siRNA) specific for PTP4A3] | – | – | – | p38α phosphorylation in response to LPS ([2]; FIG. 4D, 100 nM siRNA or 0.5 mg pcHAPTP): significantly increased; ability of overexpressed PTP4A3 to dephosphorylate p38 ([2]; pcHAPTP plus RNAi, FIG. 4D lane 5): suppressed
4 | O=c1c(-c2ccc(O)cc2)coc2cc(O)cc(O)c12 [genistein] | – | – | markedly attenuated | –
5 | [Na+].[Na+].[Na+].[O]=[V]([O-])([O-])[O-] [sodium orthovanadate, Sodium orthovanadate] | No such maximum occurred | did not result in a significant decrease | further enhanced | LPS-induced expression of TNF-α on co-treatment ([1]; LPS and orthovanadate, FIG. 1, 8-16 hrs): augmented; concentration of secreted TNF-α higher than LPS only treated cells ([1]; on average, at the 8 hr mark and beyond, LPS + 10 μM sodium orthovanadate): 20%
6 | N#CC(=C(/N)Sc1ccccc1N)/C(C#N)=C(\N)Sc1ccccc1N [U0126] | at a maximum between 8-10 hrs | did not result in a significant decrease | – | TNF-α levels within 8-10 hrs post treatment [1]: did not increase at all
7 | CO[C@H]1[C@@H](OC)C[C@H](C)[C@@H](OC)C2=CC(=O)C=C(NC(=O)/C(C)=C/C=C\[C@H](OC)[C@@H](OC(N)=O)/C(C)=C/[C@@H]1C)C2=O [Herbimycin-A] | – | – | markedly attenuated | –
